US8071625B2, “Certain chemical entities, compositions, and methods” (Cytokinetics, Inc., priority 2006, dated 2011)
pIC50: −log10 of the molar value.

Biological target: T1, crosslinked smooth muscle actomyosin (chicken gizzard smooth muscle myosin subfragment-1 crosslinked to cardiac or skeletal actin) (Gallus gallus, UniProt P10587)
T1 construct: chicken gizzard smooth muscle myosin subfragment-1; from tissue; host or cells: chicken gizzard
Assay: Lead optimization pyruvate kinase/horseradish peroxidase/pyruvate oxidase-coupled ATPase assay (compound dose response)
Assay type: biochemical
Conditions: read-out: IC50 Arithmetic Mean
In short: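 IC50 is the midpoint of a 4-parameter dose–response fit of Amplex Red fluorescence (480/615 nm). Buffer was 12 mM potassium PIPES pH 7.00 at 22 °C with 100 mM KCl, 2 mM MgCl2, 0.15 mM ATP and 2 mM phosphate, with PK/pyruvate oxidase/HRP coupling. Enzyme: smooth muscle myosin S1 crosslinked to cardiac or skeletal actin, dosed empirically by activity.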

SMILES | pIC50
CC(C)(C)OC(=O)NCC(=O)N1CCC(COC(=O)Nc2ccc(C(F)(F)F)cc2)(C(=O)NCc2cccc(Cl)c2F)CC1 [[(1-{2-[(tert-butoxy)carbonylamino]acetyl}-4-{N-[(3-chloro-2-fluorophenyl)methyl]carbamoyl}(4-piperidyl))methoxy]-N-[4-(trifluoromethyl)phenyl]carboxamide] | 5.18
Cc1c(Cl)cccc1CNC(=O)C1(COC(=O)Nc2ccc(C(F)(F)F)cc2)CCN(C(=O)CNC(=O)OC(C)(C)C)CC1 [[(1-{2-[(tert-butoxy)carbonylamino]acetyl}-4-{N-[(3-chloro-2-methylphenyl)methyl]carbamoyl}(4-piperidyl))methoxy]-N-[4-(trifluoromethyl)phenyl]carboxamide] | 5.25
Cc1c(F)cccc1CNC(=O)C1(COC(=O)Nc2ccc(C(F)(F)F)cc2)CCN(C(=O)CNC(=O)OC(C)(C)C)CC1 [[(1-{2-[(tert-butoxy)carbonylamino]acetyl}-4-{N-[(3-fluoro-2-methylphenyl)methyl]carbamoyl}(4-piperidyl))methoxy]-N-[4-(trifluoromethyl)phenyl]carboxamide] | 5.50
CCc1ccc(NC(=O)OCC2(C(=O)NCc3cccc(F)c3)CCN(C(=O)CNC(=O)OC(C)(C)C)CC2)cc1 [[(1-{2-[(tert-butoxy)carbonylamino]acetyl}-4-{N-[(3-fluorophenyl)methyl]carbamoyl}(4-piperidyl))methoxy]-N-(4-ethylphenyl)carboxamide] | 5.08
CCc1ccc(NC(=O)OCC2(C(=O)NCc3ccc(Cl)cc3)CCN(C(=O)CNC(=O)OC(C)(C)C)CC2)cc1 [[(1-{2-[(tert-butoxy)carbonylamino]acetyl}-4-{N-[(4-chlorophenyl)methyl]carbamoyl}(4-piperidyl))methoxy]-N-(4-ethylphenyl)carboxamide] | 4.84
CCc1ccc(NC(=O)OCC2(C(=O)NCc3ccc(F)cc3)CCN(C(=O)CNC(=O)OC(C)(C)C)CC2)cc1 [[(1-{2-[(tert-butoxy)carbonylamino]acetyl}-4-{N-[(4-fluorophenyl)methyl]carbamoyl}(4-piperidyl))methoxy]-N-(4-ethylphenyl)carboxamide] | 4.99
CCc1ccc(NC(=O)OC[C@@H](C)N(C)C(=O)NCc2ccccc2Cl)cc1 [[(2R)-2-({[(2-chlorophenyl)methyl]amino}-N-methylcarbonylamino)propoxy]-N-(4-ethylphenyl)carboxamide] | 5.17
CCc1ccc(NC(=O)OCC2(C(=O)NCc3cccc(Cl)c3Cl)CCN(C(=O)CNC(=O)OC(C)(C)C)CC2)cc1 [[(4-{N-[(2,3-dichlorophenyl)methyl]carbamoyl}-1-{2-[(tert-butoxy)carbonylamino]acetyl}(4-piperidyl))methoxy]-N-(4-ethylphenyl)carboxamide] | 6.50
CC(C)(C)OC(=O)NCC(=O)N1CCC(COC(=O)Nc2ccc(C(F)(F)F)cc2)(C(=O)NCc2cccc(Cl)c2Cl)CC1 [[(4-{N-[(2,3-dichlorophenyl)methyl]carbamoyl}-1-{2-[(tert-butoxy)carbonylamino]acetyl}(4-piperidyl))methoxy]-N-[4-(trifluoromethyl)phenyl]carboxamide] | 5.43
CCc1ccc(NC(=O)OCC2(C(=O)NCc3cccc(F)c3F)CCN(C(=O)CNC(=O)OC(C)(C)C)CC2)cc1 [[(4-{N-[(2,3-difluorophenyl)methyl]carbamoyl}-1-{2-[(tert-butoxy)carbonylamino]acetyl}(4-piperidyl))methoxy]-N-(4-ethylphenyl)carboxamide] | 5.80
CCc1ccc(NC(=O)OCC2(C(=O)NCc3ccccc3Br)CCN(C(=O)CNC)CC2)cc1 [[(4-{N-[(2-bromophenyl)methyl]carbamoyl}-1-[2-(methylamino)acetyl](4-piperidyl))methoxy]-N-(4-ethylphenyl)carboxamide] | 6.77
CCc1ccc(NC(=O)OCC2CN(C(=O)NCc3ccccc3Cl)CCO2)cc1 (stereo not drawn) [[(4-{N-[(2-chlorophenyl)methyl]carbamoyl}morpholin-2-yl)methoxy]-N-(4-ethylphenyl)carboxamide] | 4.93
CCc1ccc(NC(=O)OCC2(C(=O)NCc3ccccc3Cl)CCC2)cc1 [[({N-[(2-chlorophenyl)methyl]carbamoyl}cyclobutyl)methoxy]-N-(4-ethylphenyl)carboxamide] | 5.73
CCOC(=O)c1ccc(NC(=O)OCC2(C(=O)NCc3ccccc3Cl)CCOCC2)cc1 [ethyl 4-{[(4-{N-[(2-chlorophenyl)methyl]carbamoyl}-2H-3,4,5,6-tetrahydropyran-4-yl)methoxy]carbonylamino}benzoate] | 5.19
CCc1ccc(NC(=O)OCC2(C(=O)OC)CCN(C(=O)CN)CC2)cc1 [methyl 1-(2-aminoacetyl)-4-{[N-(4-ethylphenyl)carbamoyloxy]methyl}piperidine-4-carboxylate] | 4.75
CCc1ccc(NC(=O)OCC2(C(=O)NCc3ccccc3Cl)CCN(CC(=O)OC)CC2)cc1 [methyl 2-(4-{N-[(2-chlorophenyl)methyl]carbamoyl}-4-{[N-(4-ethylphenyl)carbamoyloxy]methyl}piperidyl)acetate] | 5.82
COC(=O)c1ccccc1CNC(=O)C1(COC(=O)Nc2ccc(C(F)(F)F)cc2)CCN(C(=O)CN)CC1 [methyl 2-({[1-(2-aminoacetyl)-4-({N-[4-(trifluoromethyl)phenyl]carbamoyloxy}methyl)-4-piperidyl]carbonylamino}methyl)benzoate] | 5.64

SMILES | pIC50
CCc1ccc(NC(=O)NC2(C(=O)NCc3ccccc3Cl)CCN(C(=O)OC)C2)cc1 (stereo not drawn) [methyl 3-{N-[(2-chlorophenyl)methyl]carbamoyl}-3-{[(4-ethylphenyl)amino]carbonylamino}pyrrolidinecarboxylate] | 4.73
CCc1ccc(NC(=O)OCC2(C(=O)NCc3ccccc3Cl)CCCN(C(=O)OC)C2)cc1 (stereo not drawn) [methyl 3-{N-[(2-chlorophenyl)methyl]carbamoyl}-3-{[N-(4-ethylphenyl)carbamoyloxy]methyl}piperidinecarboxylate] | 6.32
CCc1ccc(NC(=O)OCC2(C(=O)NCc3ccccc3Cl)CCN(C(=O)CCC(=O)OC)CC2)cc1 [methyl 4-(4-{N-[(2-chlorophenyl)methyl]carbamoyl}-4-{[N-(4-ethylphenyl)carbamoyloxy]methyl}piperidyl)-4-oxobutanoate] | 6.37
CCc1ccc(NC(=O)OCC2(C(=O)NCc3ccccc3Cl)CCN(C(=O)OC)CC2)cc1 [methyl 4-{N-[(2-chlorophenyl)methyl]carbamoyl}-4-{[N-(4-ethylphenyl)carbamoyloxy]methyl}piperidinecarboxylate] | 6.28
COC(=O)c1ccc(NC(=O)OCC2(C(=O)NCc3ccccc3Cl)CCN(C(=O)CN)CC2)cc1 [methyl 4-{[(1-(2-aminoacetyl)-4-{N-[(2-chlorophenyl)methyl]carbamoyl}-4-piperidyl)methoxy]carbonylamino}benzoate] | 5.74
COC(=O)c1ccc(NC(=O)OCC2(C(=O)NCc3ccccc3Cl)CCOCC2)cc1 [methyl 4-{[(4-{N-[(2-chlorophenyl)methyl]carbamoyl}-2H-3,4,5,6-tetrahydropyran-4-yl)methoxy]carbonylamino}benzoate] | 5.45
CCc1ccc(NC(=O)OC[C@H](C)N(CC(=O)OC(C)(C)C)C(=O)NCc2ccccc2Cl)cc1 [tert-butyl 2-(N-{(1S)-2-[N-(4-ethylphenyl)carbamoyloxy]-isopropyl}{[(2-chlorophenyl)methyl]amino}carbonylamino)acetate] | 4.73
CCc1ccc(NC(=O)OCC2(C(=O)NCc3ccccc3Cl)CCN(C(=O)C3CCN3C(=O)OC(C)(C)C)CC2)cc1 (stereo not drawn) [tert-butyl 2-[(4-{N-[(2-chlorophenyl)methyl]carbamoyl}-4-{[N-(4-ethylphenyl)carbamoyloxy]methyl}piperidyl)carbonyl]azetidinecarboxylate] | 5.32
CCc1ccc(NC(=O)OCC2(C(=O)NCc3ccccc3Cl)CCN(C(=O)C3COCCN3C(=O)OC(C)(C)C)CC2)cc1 (stereo not drawn) [tert-butyl 3-[(4-{N-[(2-chlorophenyl)methyl]carbamoyl}-4-{[N-(4-ethylphenyl)carbamoyloxy]methyl}piperidyl)carbonyl]morpholine-4-carboxylate] | 5.77
CCc1ccc(NC(=O)OCC2(C(=O)NCc3ccccc3Cl)CCN(C(=O)OC(C)(C)C)CC2)cc1 [tert-butyl 4-{N-[(2-chlorophenyl)methyl]carbamoyl}-4-{[N-(4-ethylphenyl)carbamoyloxy]methyl}piperidinecarboxylate] | 5.49
NCC(=O)N1CCC(COC(=O)Nc2ccc3ccccc3c2)(C(=O)NCc2ccccc2Cl)CC1 [{1-(2-aminoacetyl)-4-[(N-(2-naphthyl)carbamoyloxy)methyl](4-piperidyl)}-N-[(2-chlorophenyl)methyl]carboxamide] | 7.08
NCC(=O)N1CCC(COC(=O)Nc2ccc3c(c2)CCC3)(C(=O)NCc2ccccc2Cl)CC1 [{1-(2-aminoacetyl)-4-[(N-indan-5-ylcarbamoyloxy)methyl](4-piperidyl)}-N-[(2-chlorophenyl)methyl]carboxamide] | 6.90
NCC(=O)N1CCC(COC(=O)Nc2ccccc2)(C(=O)NCc2ccccc2Cl)CC1 [{1-(2-aminoacetyl)-4-[(N-phenylcarbamoyloxy)methyl](4-piperidyl)}-N-[(2-chlorophenyl)methyl]carboxamide] | 5.04
CCc1ccc(NC(=O)OC2CCCN(C(=O)NCc3ccccc3C)C2)cc1 (stereo not drawn) [{3-[N-(4-ethylphenyl)carbamoyloxy]piperidyl}-N-[(2-methylphenyl)methyl]carboxamide] | 5.26
CCc1ccc(NC(=O)O[C@@H]2CCCN(C(=O)NCc3ccccc3Cl)C2)cc1 [{(3R)-3-[N-(4-ethylphenyl)carbamoyloxy]piperidyl}-N-[(2-chlorophenyl)methyl]carboxamide] | 5.81
CCc1ccc(NC(=O)O[C@H]2CCCN(C(=O)NCc3ccccc3Cl)C2)cc1 [{(3S)-3-[N-(4-ethylphenyl)carbamoyloxy]piperidyl}-N-[(2-chlorophenyl)methyl]carboxamide] | 4.99
